Test results: publication PMC3529809 (Steroids, 2012)
Where “and” joins values, the source holds several entries; their conditions need not be identical. Identical values can stand only once. Entries after “also recorded” stand apart in the source; their conditions may differ.

Experiments:
human ERβ [1] = target: T1, human ERβ (Homo sapiens, UniProt Q92731); test: ERELUC transient transfection reporter assay, ERβ in HepG2 cells; type: cell-based; details: for effect on ERβ-mediated induction of ERELUC by E2, DHEA, 7-oxo-DHEA, ADIOL and ADIONE: 1 µM ICI, 100 nM 4-OHT, 1 µM R,R-THC, 5 µM sterol, Fig. 3B; for ERELUC activity in ERβ-expressing HepG2 cells: 5 µM, 24 h, Fig. 1B, result in words
NRF1 (NRF-1) expression = test: QRT-PCR of NRF1 in ERβ-transfected HepG2 cells; type: cell-based, human; details: 10 nM E2 or 5 µM sterol, 24 h, Fig. 5B
MCF-7 cells = details: cited from earlier work; for proliferation of MCF-7 cells: 1–10 µM concentrations; for MCF-7 cell proliferation: less than E2
ERα [2] = details: 0.1 µM, HEK-293; cited from earlier work
ERβ [3] = details: 0.1 µM, HEK-293; cited from earlier work
hERα [4] = target: T2, hERα (Homo sapiens, UniProt P03372); test: [3H] E2 ligand binding competition; details: for ERα binding / competition with E2: result in words
human ERβ [5] = target: T1, human ERβ; test: [3H] E2 ligand binding competition; details: IC50 for ERβ, competition with 30 nM [3H] E2, Fig. 6B
hERα [6] = target: T2, hERα; test: ERELUC transient transfection reporter assay, ERα in HEK-293 cells; type: cell-based; details: for ERα agonist activity in ERELUC assay: result in words
[7] = tested on: TFF1 (pS2), PGR (PR), CTSD (cathepsin D) transcription; test: QRT-PCR of endogenous ER-target genes in ERα-transfected HEK-293 cells; type: cell-based, human; details: 10 nM E2 or 5 µM sterol, 24 h, Fig. 5A
[8] = tested on: MCF-7 human breast cancer cells; test: Cell proliferation BrdU assay; type: cell-based; details: for MCF-7 cell proliferation: 48 h BrdU, 10 nM E2, 5 µM sterols, Fig. 7
ERα [9] = details: 50 µM, COS cells; cited from earlier work
ERβ [10] = details: 50 µM, COS cells; cited from earlier work
hERα [11] = target: T2, hERα; type: cell-based; details: Supplemental Fig. 1
[12] = MEK1/2 inhibitor, data not shown

T2 sequence (P03372 whole entry): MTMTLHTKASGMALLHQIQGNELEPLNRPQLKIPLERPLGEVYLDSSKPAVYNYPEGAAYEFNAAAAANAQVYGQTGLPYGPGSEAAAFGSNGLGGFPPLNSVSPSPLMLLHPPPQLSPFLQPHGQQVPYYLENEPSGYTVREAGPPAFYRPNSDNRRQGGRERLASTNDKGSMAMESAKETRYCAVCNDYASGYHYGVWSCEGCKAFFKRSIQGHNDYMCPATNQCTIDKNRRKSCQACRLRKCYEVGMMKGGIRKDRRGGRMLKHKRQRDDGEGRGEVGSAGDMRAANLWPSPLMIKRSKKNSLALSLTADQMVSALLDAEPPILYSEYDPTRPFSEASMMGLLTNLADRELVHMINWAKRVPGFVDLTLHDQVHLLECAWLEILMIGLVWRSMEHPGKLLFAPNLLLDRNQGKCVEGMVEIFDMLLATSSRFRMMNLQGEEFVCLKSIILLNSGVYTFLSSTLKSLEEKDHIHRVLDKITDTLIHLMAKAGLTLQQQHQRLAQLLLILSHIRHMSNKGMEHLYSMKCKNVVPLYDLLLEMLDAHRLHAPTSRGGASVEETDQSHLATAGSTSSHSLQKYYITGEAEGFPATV
T1 sequence (Q92731 whole entry): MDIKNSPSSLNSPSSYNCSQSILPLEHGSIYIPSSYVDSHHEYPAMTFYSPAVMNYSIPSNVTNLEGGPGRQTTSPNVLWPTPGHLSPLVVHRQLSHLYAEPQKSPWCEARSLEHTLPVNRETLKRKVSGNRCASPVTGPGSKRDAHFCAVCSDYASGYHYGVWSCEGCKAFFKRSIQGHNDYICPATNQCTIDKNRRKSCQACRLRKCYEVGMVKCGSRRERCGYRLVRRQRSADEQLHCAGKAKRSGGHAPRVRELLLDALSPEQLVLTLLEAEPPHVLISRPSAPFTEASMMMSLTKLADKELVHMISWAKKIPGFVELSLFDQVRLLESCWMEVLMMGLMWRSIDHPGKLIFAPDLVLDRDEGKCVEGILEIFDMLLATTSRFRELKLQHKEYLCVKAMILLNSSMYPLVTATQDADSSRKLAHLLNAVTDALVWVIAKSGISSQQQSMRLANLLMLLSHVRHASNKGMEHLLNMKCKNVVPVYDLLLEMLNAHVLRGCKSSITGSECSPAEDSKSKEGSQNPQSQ

CC[C@@H]1Cc2cc(O)ccc2C2=C1c1ccc(O)cc1C[C@H]2CC (relative stereo) [R,R-THC, R,R-cis-diethyl tetrahydrochrysene, reference compound]
effect on ERβ-mediated induction of ERELUC by E2, DHEA, 7-oxo-DHEA, ADIOL and ADIONE (human ERβ [1]): significantly inhibited

C[C@]12CC[C@H](O)C[C@@H]1CC[C@@H]1[C@@H]2CC[C@]2(C)[C@@H](O)CC[C@@H]12 [3β-Adiol, 5α-androstane-3β,17β-adiol]
NRF-1 mRNA expression (NRF1 (NRF-1) expression): increased; also recorded: low induction
proliferation of MCF-7 cells (MCF-7 cells): stimulated proliferation
ERE-luciferase activity, ERα (ERα [2]): activated
ERE-luciferase activity, ERβ (ERβ [3]): activated

CC/C(=C(\c1ccc(O)cc1)c1ccc(OCCN(C)C)cc1)c1ccccc1 [4-OHT, 4-hydroxytamoxifen, reference compound]
effect on ERβ-mediated induction of ERELUC by E2, DHEA, 7-oxo-DHEA, ADIOL and ADIONE (human ERβ [1]): inhibited

C[C@]12CC[C@H](O)CC1=CC(=O)[C@@H]1[C@@H]2CC[C@]2(C)C(=O)CC[C@@H]12 [7-oxo-DHEA, 3β-hydroxyandrost-5-ene-7,17-dione]
ERα binding / competition with E2 (hERα [4]): did not exhibit significant ERα binding
IC50 (human ERβ [5]): 500 µM
ERα agonist activity in ERELUC assay (hERα [6]; HEK-293): lack of ERα-induced ERE-luciferase activity
ERELUC activity in ERβ-expressing HepG2 cells (human ERβ [1]): significantly induced
CTSD (cathepsin D) expression [7]: no activation
PGR (PR) expression [7]: no activation
TFF1 (pS2) expression [7]: increased
NRF-1 mRNA expression (NRF1 (NRF-1) expression): low induction
MCF-7 cell proliferation [8]: increased

C[C@]12CC[C@H](O)CC1=C[C@@H](O)[C@@H]1[C@@H]2CC[C@]2(C)C(=O)CC[C@@H]12 [7α-OH-DHEA, 7α-hydroxy-DHEA]
ERα agonist activity in ERELUC assay (hERα [6]; HEK-293): lack of ERα activity
ERELUC activity in ERβ-expressing HepG2 cells (human ERβ [1]): increased
CTSD (cathepsin D) expression [7]: no induction
PGR (PR) expression [7]: no induction
TFF1 (pS2) expression [7]: no induction
NRF-1 mRNA expression (NRF1 (NRF-1) expression): low induction
NRF-1 mRNA expression (NRF1 (NRF-1) expression; listed as α-OH-DHEA): statistically significant increase
ERE-TK-luciferase reporter activity, ERα (ERα [9]): stimulated activity
ERE-TK-luciferase reporter activity, ERβ (ERβ [10]): stimulated activity

C[C@]12CC[C@H](O)C[C@@H]1C[C@@H](O)[C@@H]1[C@@H]2CC[C@]2(C)C(=O)CC[C@@H]12 [7α-OH-EpiA, 7α-hydroxy-epiandrosterone]
MCF-7 proliferation (MCF-7 cells; 1–100 nM): inhibited

C[C@]12CC[C@H](O)CC1=C[C@H](O)[C@@H]1[C@@H]2CC[C@]2(C)C(=O)CC[C@@H]12 [7β-OH-DHEA, 7β-hydroxy-DHEA]
ERELUC activity in ERβ-expressing HepG2 cells (human ERβ [1]): suppressed

C[C@]12CC[C@H](O)C[C@@H]1C[C@H](O)[C@@H]1[C@@H]2CC[C@]2(C)C(=O)CC[C@@H]12 [7β-OH-EpiA, 7β-Hydroxy-epiandrosterone]
E2-induced proliferation of MCF-7 cells (MCF-7 cells; 1–100 nM, no dose-response detected): inhibited
cell proliferation, compound alone (MCF-7 cells; 1–100 nM): did not affect

C[C@]12CC[C@H](O)CC1=CC[C@@H]1[C@@H]2[C@@H](O)C[C@]2(C)C(=O)CC[C@@H]12 [11β-OH-DHEA, 11β-hydroxy-DHEA]
ERELUC activity in ERβ-expressing HepG2 cells (human ERβ [1]): suppressed

C[C@]12CC[C@H](O)CC1=CC[C@@H]1[C@@H]2CC[C@]2(C)C(=O)[C@H](O)C[C@@H]12 [16α-OH-DHEA, 16α-hydroxy-DHEA]
ERα agonist activity in ERELUC assay (hERα [6]; HEK-293): lack of ERα-induced ERE-luciferase activity
ERELUC activity in ERβ-expressing HepG2 cells (human ERβ [1]): increased
CTSD (cathepsin D) expression [7]: no activation
PGR (PR) expression [7]: no activation
TFF1 (pS2) expression [7]: increased
NRF-1 mRNA expression (NRF1 (NRF-1) expression): statistically significant increase; also recorded: low induction

C[C@]12CC[C@H]3[C@@H](CC=C4C[C@@H](O)CC[C@@]43C)[C@@H]1CC[C@@H]2O [ADIOL, androst-5-ene-3β,17β-diol]
ERELUC activity in ERβ-expressing HepG2 cells (human ERβ [1]): significantly induced
TFF1 (pS2) expression [7]: increased
NRF-1 mRNA expression (NRF1 (NRF-1) expression): statistically significant increase
MCF-7 cell proliferation [8]: increased
proliferation of MCF-7 cells (MCF-7 cells): stimulated proliferation
MCF-7 cell growth (MCF-7 cells; DHEA 0.5 µM, ADIOL 2 nM): stimulated
MCF-7 cell proliferation (MCF-7 cells): increased cell proliferation
ERE-luciferase activity, ERα (ERα [2]): activated
ERE-luciferase activity, ERβ (ERβ [3]): activated

C[C@]12CCC(=O)CC1=CC[C@@H]1[C@@H]2CC[C@]2(C)C(=O)CC[C@@H]12 [ADIONE, androst-5-ene-3,17-dione]
IC50 (human ERβ [5]): 50 µM and ~50 µM
ERELUC activity in ERβ-expressing HepG2 cells (human ERβ [1]): significantly induced
ERELUC activity in ERβ-expressing HepG2 cells (human ERβ [1]; listed as androst-5-ene-3,17-dione): effective in activating
NRF-1 mRNA expression (NRF1 (NRF-1) expression): did not increase
MCF-7 cell proliferation [8]: increased

CC(O)(CS(=O)(=O)c1ccc(F)cc1)C(=O)Nc1ccc(C#N)c(C(F)(F)F)c1 (stereo not drawn) [Bicalutamide, reference compound]
effect on DHEA-, 7-oxo-DHEA-, ADIOL- and ADIONE-induced proliferation ([8]; 10 µM bicalutamide, pretreatment 4 h, also blocked DHT-induced proliferation): inhibited

C[C@]12CC[C@H](OS(=O)(=O)O)CC1=CC[C@@H]1[C@@H]2CC[C@]2(C)C(=O)CC[C@@H]12 [DHEA-S, DHEA 3β-sulfate]
IC50 (hERα [4]; read-out: IC50 for ERα, competition with 30 nM [3H] E2, Fig. 6A): 100 to 500 µM
induction of ERELUC activity via ERα (hERα [6]; 5 µM, 24 h, HEK-293, Fig. 1B): around 9 fold
induction of ERELUC expression with ERα (hERα [6]; concentration-response, at higher concentrations, HEK-293, Fig. 2A): ~ 2 fold
CTSD (cathepsin D) expression [7]: increased
PGR (PR) expression [7]: increased
TFF1 (pS2) expression [7]: increased
MCF-7 cell proliferation [8]: increased
MCF-7 cell proliferation (MCF-7 cells): increased cell proliferation

C[C@]12CCC(=O)C[C@@H]1CC[C@@H]1[C@@H]2CC[C@]2(C)[C@@H](O)CC[C@@H]12 [DHT, dihydrotestosterone, reference compound]
MCF-7 cell proliferation [8]: concentration-dependent increase
proliferation of MCF-7 cells (MCF-7 cells): stimulated proliferation

C[C@]12CC[C@@H]3c4ccc(O)cc4CC[C@H]3[C@@H]1CC[C@@H]2O [E2, 17β-estradiol, reference compound]
CTSD (cathepsin D) expression [7]: increased
PGR (PR) expression [7]: increased
TFF1 (pS2) expression [7]: increased
NRF-1 mRNA expression (NRF1 (NRF-1) expression): statistically significant increase; also recorded: low induction

C[C@]12CC[C@@H]3c4ccc(O)cc4C[C@@H](CCCCCCCCC[S+]([O-])CCCC(F)(F)C(F)(F)F)[C@H]3[C@@H]1CC[C@@H]2O (stereo partly drawn) [ICI 182,780, reference compound]
effect on ERα-mediated induction of ERELUC by E2, DHEA, DHEA-S and ADIOL (hERα [6]; 1 µM ICI, 100 nM 4-OHT, 1 µM R,R-THC, 5 µM sterol, Fig. 3A): inhibited
effect on ERβ-mediated induction of ERELUC by E2, DHEA, 7-oxo-DHEA, ADIOL and ADIONE (human ERβ [1]): inhibited
effect on E2-induced stimulation of MCF-7 cell proliferation ([8]; 100 nM ICI 182,780, pretreatment 6 h): inhibited
effect on the proliferative activity of 10 nM DHEA in MCF-7 cells (MCF-7 cells): lack of inhibition

COc1cccc(-c2cc(=O)c3ccccc3o2)c1N [PD998059, reference compound]
effect on DHEA or metabolite-induced ERELUC activity, ERα (hERα [6]; [12]): did not block
effect on DHEA or metabolite-induced ERELUC activity, ERβ (human ERβ [1]; [12]): did not block

C[C@]12CCC(=O)C=C1CC[C@@H]1[C@@H]2CC[C@]2(C)C(=O)CC[C@@H]12 [androst-4-ene-3,17-dione]
ERELUC activity in ERβ-expressing HepG2 cells (human ERβ [1]): effective in activating

C=C1C[C@@H]2[C@H](CC[C@]3(C)C(=O)CC[C@@H]23)[C@@]2(C)C=CC(=O)C=C12 [exemestane, reference compound]
effect on E2, DHEA or ADIOL induced ERELUC activity in ERα-transfected cells (hERα [6]; 100 nM exemestane, HEK-293, Fig. 4A): did not significantly inhibit
effect on ADIONE activation of ERβ (human ERβ [1]; 100 nM exemestane, HepG2, Fig. 4B): no effect
inhibition at 0.1 µM (human ERβ [1]; HepG2, read-out: inhibition of DHEA-, ADIOL- and 7-oxo-DHEA-induced ERELUC reporter activity): 20 to 30%
effect on proliferation with ADIOL or ADIONE ([8]; 100 nM exemestane, 5 µM sterol, 48 h): no inhibitory activity

Clc1ccc(COC(Cn2ccnc2)c2ccc(Cl)cc2Cl)c(Cl)c1 (stereo not drawn) [miconazole, reference compound]
inhibition of [3H] E2 binding to recombinant human ERα (hERα [4]; 100 µM competitor, Supplemental Fig. 2): 15%
ERα binding / competition with E2 (hERα [4]): did not compete
effect on DHEA-stimulated ERα transcriptional activity (hERα [6]; 5 µM miconazole, HEK-293): did not inhibit
effect on ERα activation of ERELUC in response to E2 and ADIOL (hERα [6]; 5 µM miconazole, HEK-293, Fig. 4A): reduced
effect on ERβ activation of ERELUC in response to E2, ADIOL, DHEA, ADIONE and 7-oxo-DHEA (human ERβ [1]; 5 µM miconazole, HepG2, Fig. 4B): reduced
effect on E2-induced ERα-ERE-LUC activity (hERα [11]; 10 nM E2, miconazole pretreatment): inhibited
increase of basal ERE-luciferase reporter activity (hERα [11]; miconazole pretreatment): ~ 0.8 fold
effect on MCF-7 cell proliferation induced by E2, DHEA, ADIOL and ADIONE ([8]; 5 µM miconazole, 48 h): inhibited

C[C@]12CC[C@H]3[C@@H](CCC4=CC(=O)CC[C@@]43C)[C@@H]1CC[C@@H]2O [testosterone]
proliferation of MCF-7 cells (MCF-7 cells): stimulated proliferation
